Laboratory results reported in the NIST ThermoML archive (doi:10.1021/je500381c).

Experiment: xn = mol fraction of the nth substance listed
Conditions: for mass density / viscosity: 100 kPa, Liquid; for mass density: Vibrating tube method; for surface tension liquid-gas: Drop volume

CCC12CC3CC(CC(C3)C1)C2 [1-ethyladamantane] + CCCCCCCO
Conditions	mass density [kg/m3]	surface tension liquid-gas [mN/m]	viscosity [mPa·s]
293.15 K, x2 = 0	937.11	–	6.371
293.15 K, x2 = 0.0999	927.59	–	5.91
293.15 K, x2 = 0.1999	917.88	–	5.707
293.15 K, x2 = 0.2988	907.92	–	5.62
293.15 K, x2 = 0.3991	897.36	–	5.584
293.15 K, x2 = 0.4998	886.28	–	5.647
293.15 K, x2 = 0.5995	874.78	–	5.843
293.15 K, x2 = 0.7	862.6	–	6.077
293.15 K, x2 = 0.8002	849.85	–	6.41
293.15 K, x2 = 0.9	836.45	–	6.719
298.15 K, x2 = 0	933.58	29.87	5.565
298.15 K, x2 = 0.0999	924.02	29.66	5.136
298.15 K, x2 = 0.1999	914.26	29.21	4.958
298.15 K, x2 = 0.2988	904.28	28.87	4.86
298.15 K, x2 = 0.3991	893.7	28.72	4.836
298.15 K, x2 = 0.4998	882.65	28.42	4.859
298.15 K, x2 = 0.5995	871.16	28.1	4.989
298.15 K, x2 = 0.7	859.01	27.75	5.156
298.15 K, x2 = 0.8002	846.29	27.23	5.422
298.15 K, x2 = 0.9	832.93	26.74	5.683
303.15 K, x2 = 0	929.99	–	4.903
303.15 K, x2 = 0.0999	920.37	–	4.506
303.15 K, x2 = 0.1999	910.61	–	4.337
303.15 K, x2 = 0.2988	900.6	–	4.238
303.15 K, x2 = 0.3991	890.03	–	4.215
303.15 K, x2 = 0.4998	878.99	–	4.215
303.15 K, x2 = 0.5995	867.51	–	4.306
303.15 K, x2 = 0.7	855.39	–	4.424
303.15 K, x2 = 0.8002	842.7	–	4.63
303.15 K, x2 = 0.9	829.37	–	4.841
308.15 K, x2 = 0	926.4	–	4.348
308.15 K, x2 = 0.0999	916.7	–	3.965
308.15 K, x2 = 0.1999	906.92	–	3.814
308.15 K, x2 = 0.2988	896.92	–	3.722
308.15 K, x2 = 0.3991	886.35	–	3.692
308.15 K, x2 = 0.4998	875.31	–	3.681
308.15 K, x2 = 0.5995	863.84	–	3.742
308.15 K, x2 = 0.7	851.75	–	3.824
308.15 K, x2 = 0.8002	839.08	–	3.985
308.15 K, x2 = 0.9	825.79	–	4.154
313.15 K, x2 = 0	922.81	–	3.878
313.15 K, x2 = 0.0999	913.02	–	3.516
313.15 K, x2 = 0.1999	903.22	–	3.376
313.15 K, x2 = 0.2988	893.21	–	3.286
313.15 K, x2 = 0.3991	882.64	–	3.251
313.15 K, x2 = 0.4998	871.61	–	3.235
313.15 K, x2 = 0.5995	860.15	–	3.275
313.15 K, x2 = 0.7	848.08	–	3.331
313.15 K, x2 = 0.8002	835.43	–	3.454
313.15 K, x2 = 0.9	822.17	–	3.589
318.15 K, x2 = 0	919.21	–	3.478
318.15 K, x2 = 0.0999	909.33	–	3.135
318.15 K, x2 = 0.1999	899.51	–	3.003
318.15 K, x2 = 0.2988	889.49	–	2.922
318.15 K, x2 = 0.3991	878.91	–	2.882
318.15 K, x2 = 0.4998	867.88	–	2.859
318.15 K, x2 = 0.5995	856.43	–	2.884
318.15 K, x2 = 0.7	844.37	–	2.919
318.15 K, x2 = 0.8002	831.75	–	3.012
318.15 K, x2 = 0.9	818.53	–	3.12
323.15 K, x2 = 0	915.62	–	3.134
323.15 K, x2 = 0.0999	905.62	–	2.811
323.15 K, x2 = 0.1999	895.76	–	2.687
323.15 K, x2 = 0.2988	885.74	–	2.608
323.15 K, x2 = 0.3991	875.17	–	2.569
323.15 K, x2 = 0.4998	864.13	–	2.54
323.15 K, x2 = 0.5995	852.69	–	2.555
323.15 K, x2 = 0.7	840.64	–	2.573
323.15 K, x2 = 0.8002	828.04	–	2.644
323.15 K, x2 = 0.9	814.85	–	2.728
328.15 K, x2 = 0	912.01	–	2.838
328.15 K, x2 = 0.0999	901.91	–	2.531
328.15 K, x2 = 0.1999	892.03	–	2.413
328.15 K, x2 = 0.2988	881.97	–	2.338
328.15 K, x2 = 0.3991	871.39	–	2.299
328.15 K, x2 = 0.4998	860.35	–	2.267
328.15 K, x2 = 0.5995	848.92	–	2.271
328.15 K, x2 = 0.7	836.88	–	2.28
328.15 K, x2 = 0.8002	824.29	–	2.333
328.15 K, x2 = 0.9	811.13	–	2.399
333.15 K, x2 = 0	908.41	–	2.581
333.15 K, x2 = 0.0999	898.19	–	2.291
333.15 K, x2 = 0.1999	888.26	–	2.178
333.15 K, x2 = 0.2988	878.19	–	2.106
333.15 K, x2 = 0.3991	867.59	–	2.066
333.15 K, x2 = 0.4998	856.55	–	2.033
333.15 K, x2 = 0.5995	845.11	–	2.03
333.15 K, x2 = 0.7	833.08	–	2.033
333.15 K, x2 = 0.8002	820.51	–	2.07
333.15 K, x2 = 0.9	807.38	–	2.121
